Laboratory results taken from publication PMC12155096 (International Journal of Molecular Sciences, 2025).

Tests used:
human CYP1A2 = molecular target: T1, human CYP1A2 (Homo sapiens, UniProt P05177)
T1 sequence (P05177 1-516): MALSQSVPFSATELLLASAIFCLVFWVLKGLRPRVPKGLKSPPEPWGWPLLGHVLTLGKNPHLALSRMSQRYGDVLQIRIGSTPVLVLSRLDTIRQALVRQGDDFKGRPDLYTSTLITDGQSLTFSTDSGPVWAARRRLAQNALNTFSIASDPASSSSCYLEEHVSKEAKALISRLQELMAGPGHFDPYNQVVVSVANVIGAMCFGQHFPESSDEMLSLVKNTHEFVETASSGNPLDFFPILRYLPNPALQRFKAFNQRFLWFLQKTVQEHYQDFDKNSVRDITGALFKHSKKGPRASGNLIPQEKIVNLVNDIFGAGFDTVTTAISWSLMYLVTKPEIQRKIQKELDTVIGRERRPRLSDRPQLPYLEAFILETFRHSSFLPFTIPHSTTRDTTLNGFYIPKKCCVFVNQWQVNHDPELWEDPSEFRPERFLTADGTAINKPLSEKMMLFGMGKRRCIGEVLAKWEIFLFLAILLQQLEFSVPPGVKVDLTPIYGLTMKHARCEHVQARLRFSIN

human CYP2C9 = human CYP2C9 (Homo sapiens, UniProt P11712)
Sequence of human CYP2C9 (P11712 whole entry): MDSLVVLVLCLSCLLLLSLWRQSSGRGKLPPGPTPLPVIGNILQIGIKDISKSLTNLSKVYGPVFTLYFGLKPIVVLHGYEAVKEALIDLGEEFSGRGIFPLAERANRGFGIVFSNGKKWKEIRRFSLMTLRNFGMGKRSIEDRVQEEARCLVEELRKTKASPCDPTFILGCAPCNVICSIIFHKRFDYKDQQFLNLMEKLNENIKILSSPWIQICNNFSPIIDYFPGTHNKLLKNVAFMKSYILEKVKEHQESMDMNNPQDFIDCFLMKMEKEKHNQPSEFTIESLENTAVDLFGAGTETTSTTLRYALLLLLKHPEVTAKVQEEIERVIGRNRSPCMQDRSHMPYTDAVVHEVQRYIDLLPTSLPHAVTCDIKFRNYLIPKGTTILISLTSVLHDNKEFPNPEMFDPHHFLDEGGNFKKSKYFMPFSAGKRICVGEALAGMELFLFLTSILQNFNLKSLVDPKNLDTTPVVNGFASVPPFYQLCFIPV

human CYP2C19 = human CYP2C19 (Homo sapiens, UniProt P33261)
Sequence of human CYP2C19 (P33261 whole entry): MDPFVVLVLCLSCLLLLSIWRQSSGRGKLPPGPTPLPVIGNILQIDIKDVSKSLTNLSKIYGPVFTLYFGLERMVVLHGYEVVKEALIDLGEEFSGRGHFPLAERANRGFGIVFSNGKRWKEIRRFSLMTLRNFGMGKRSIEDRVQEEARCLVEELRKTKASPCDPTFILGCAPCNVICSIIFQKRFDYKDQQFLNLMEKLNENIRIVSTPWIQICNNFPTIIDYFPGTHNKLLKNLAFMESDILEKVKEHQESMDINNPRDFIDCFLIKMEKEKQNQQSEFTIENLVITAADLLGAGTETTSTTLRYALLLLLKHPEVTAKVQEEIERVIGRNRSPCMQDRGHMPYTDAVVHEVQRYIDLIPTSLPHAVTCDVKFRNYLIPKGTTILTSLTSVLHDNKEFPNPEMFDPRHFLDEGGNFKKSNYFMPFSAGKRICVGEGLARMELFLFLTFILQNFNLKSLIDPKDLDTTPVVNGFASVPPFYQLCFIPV

human CYP2D6 = human CYP2D6 (Homo sapiens, UniProt P10635)
Sequence of human CYP2D6 (P10635 whole entry): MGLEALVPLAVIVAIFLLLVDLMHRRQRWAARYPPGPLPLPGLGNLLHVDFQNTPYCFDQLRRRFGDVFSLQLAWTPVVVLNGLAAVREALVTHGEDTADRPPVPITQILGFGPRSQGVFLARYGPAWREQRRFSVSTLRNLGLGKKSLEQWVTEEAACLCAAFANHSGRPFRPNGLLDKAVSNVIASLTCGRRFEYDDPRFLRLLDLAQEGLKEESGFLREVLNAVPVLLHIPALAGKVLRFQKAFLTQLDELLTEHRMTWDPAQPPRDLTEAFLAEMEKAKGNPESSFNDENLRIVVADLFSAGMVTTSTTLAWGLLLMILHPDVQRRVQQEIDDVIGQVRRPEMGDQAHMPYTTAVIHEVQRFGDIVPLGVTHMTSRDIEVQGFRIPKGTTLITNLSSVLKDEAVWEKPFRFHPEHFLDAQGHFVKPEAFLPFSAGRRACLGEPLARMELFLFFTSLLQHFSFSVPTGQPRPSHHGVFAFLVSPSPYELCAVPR

CYP3A4 = CYP3A4 (Homo sapiens, UniProt P08684)
Sequence of CYP3A4 (P08684 whole entry): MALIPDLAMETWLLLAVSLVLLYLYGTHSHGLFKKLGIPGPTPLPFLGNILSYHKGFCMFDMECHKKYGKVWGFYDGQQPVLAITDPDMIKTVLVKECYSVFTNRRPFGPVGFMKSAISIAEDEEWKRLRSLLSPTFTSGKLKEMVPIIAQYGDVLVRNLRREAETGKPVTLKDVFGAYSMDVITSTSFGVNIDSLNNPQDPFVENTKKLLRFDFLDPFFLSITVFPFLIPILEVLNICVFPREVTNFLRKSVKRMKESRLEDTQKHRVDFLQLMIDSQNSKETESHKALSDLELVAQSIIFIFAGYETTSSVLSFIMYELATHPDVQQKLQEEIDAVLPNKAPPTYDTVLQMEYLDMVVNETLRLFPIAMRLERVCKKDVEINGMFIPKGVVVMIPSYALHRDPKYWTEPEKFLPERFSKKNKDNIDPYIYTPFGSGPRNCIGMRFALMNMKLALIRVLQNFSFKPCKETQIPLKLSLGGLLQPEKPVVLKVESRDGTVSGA

SMILES | CYP1A2 AC50 (half-maximal activity concentration) (human CYP1A2) | CYP2C9 AC50 (half-maximal activity concentration) (human CYP2C9) | CYP2C19 AC50 (half-maximal activity concentration) (human CYP2C19) | CYP2D6 AC50 (half-maximal activity concentration) (human CYP2D6) | AC50 (CYP3A4) [µM] | AC50 (human CYP1A2) [µM] | AC50 (human CYP2C9) [µM] | AC50 (human CYP2C19) [µM] | AC50 (human CYP2D6) [µM] | also measured
C[As+](C)(C)CC(=O)[O-] [Arsenobetaine] | Inactive | Inactive | Inactive | Inactive | 47.7 | – | – | – | – | –
CCCCC(CC)C(=O)[O-].CCCCC(CC)C(=O)[O-].[Ba+2] (centres unmarked) [Barium bis(2-ethylhexanoate)] | Inactive | Inactive | Inactive | Inactive | 38.5 | – | – | – | – | –
CC(=O)OC(C(=O)c1ccccc1)c1ccccc1 (centres unmarked) [Benzoin acetate] | – | – | – | – | 34.5 | 46.5 | 33.2 | 10.1 | 59.5 | –
O=C(Cc1ccccc1)OCc1ccccc1 [Benzyl phenylacetate] | – | – | – | – | 11.5 | 12.7 | 35.8 | 13.5 | 66.3 | –
C/C=C(\C)C(=O)OCc1ccccc1 [Benzyl tiglate] | – | Inactive | Inconclusive inhibitor | Inactive | 39 | 37 | – | – | – | –
C=C(C)C(=O)OCC(O)COc1ccc(C(C)(C)c2ccc(OCC(O)COC(=O)C(=C)C)cc2)cc1 (centres unmarked) [Bisphenol A glycidyl methacrylate] | – | – | – | – | 3.3 | 63.5 | 3.46 | 7.59 | 37 | –
CC(c1ccc(O)cc1)c1ccc(O)cc1 [Bisphenol E] | Inactive | – | – | Inactive | – | – | 38.6 | 33.5 | – | CYP3A4 AC50 (half-maximal activity concentration) (CYP3A4): Inconclusive inhibitor
CCC(=O)O[C@@H]1C=C2CC[C@@H]3[C@H](CC[C@]4(C)[C@@H](OC(=O)CC)CC[C@@H]34)C2CC1 (some centres unmarked) [Bolandiol dipropionate] | Inconclusive inhibitor | – | Inactive | Inactive | 10.6 | – | 15.5 | – | – | –
CCOP(=S)(OCC)Oc1cc(Cl)c(Br)cc1Cl [Bromophos-ethyl] | – | – | – | – | – | – | – | – | – | CYP1A2 Efficacy (in parenthesis) (human CYP1A2; human): 3.3 ± 0.22 (-98 ± 3) %; CYP2C9 Efficacy (in parenthesis) (human CYP2C9; human): 2.36 ± 0.42 (-102 ± 2) %; CYP2C19 Efficacy (in parenthesis) (human CYP2C19; human): 0.71 ± 0.08 (-121 ± 12) %; CYP2D6 IC50 (half-maximal inhibitory concentration) (human CYP2D6): Inactive; CYP3A4 Efficacy (in parenthesis) (CYP3A4): 1.97 ± 0.48 (-79 ± 2) %
O=[N+]([O-])c1ccc(Nc2ccc(Nc3ccccc3)c(S(=O)(=O)[O-])c2)c([N+](=O)[O-])c1.[Na+] [C.I. Acid Orange 3] | Inactive | – | Inconclusive inhibitor | Inactive | 62.6 | – | 34.3 | – | – | –
N.N.O=C([O-])C1(C(=O)[O-])CCC1.[Pt+2] [Carboplatin] | – | – | – | – | 31.3 | 15.6 | 9.46 | 17.7 | 28.7 | –
CC(=O)[O-].CC(=O)[O-].CC(=O)[O-].[Cr+3] [Chromium(III) acetate] | Inactive | – | Inactive | Inactive | 69.6 | – | 96.3 | – | – | –
CCOC(=O)COc1ccc2c(C)c(CCN(CC)CC)c(=O)oc2c1Cl.Cl [Cloricromen hydrochloride] | Inconclusive inhibitor | Inactive | Inactive | – | 16.8 | – | – | – | 18.2 | –
O=C(O)C1(C(=O)Nc2ccc(Cl)cc2Cl)CC1 [Cyclanilide] | – | – | Inconclusive inhibitor | – | 55.5 | 60.6 | 18.7 | – | 66.8 | –
CC(=O)O[C@H]1CC[C@@]2(C)C(=CC[C@@H]3[C@@H]2CC[C@]2(C)C(C(C)=O)=CC[C@@H]32)C1 [Dehydropregnenolone acetate] | Inactive | Inactive | Inactive | Inactive | 4.44 | – | – | – | – | –
COC(=O)CCCCCCCC(=O)OC [Dimethyl nonanedioate] | – | Inconclusive inhibitor | Inconclusive inhibitor | Inconclusive inhibitor | 58.1 | 40.1 | – | – | – | –
